From BindingDB's records for doi:10.1074/jbc.M606873200 (Incyte, 2006)

Target: T1, Tyrosine-protein phosphatase non-receptor type 1 [1-298] (Homo sapiens, UniProt P18031)
T1 construct: 1-298
T1 sequence (P18031 whole entry): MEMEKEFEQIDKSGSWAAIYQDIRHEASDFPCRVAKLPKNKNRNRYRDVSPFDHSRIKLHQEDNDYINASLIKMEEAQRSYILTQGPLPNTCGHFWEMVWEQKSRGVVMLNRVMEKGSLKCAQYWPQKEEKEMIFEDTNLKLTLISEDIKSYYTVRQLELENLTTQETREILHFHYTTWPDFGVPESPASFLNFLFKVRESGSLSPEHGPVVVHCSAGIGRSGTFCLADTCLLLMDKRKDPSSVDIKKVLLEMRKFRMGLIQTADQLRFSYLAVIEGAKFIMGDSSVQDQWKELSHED
Assay: Phosphatase Inhibition Assay
Conditions: pH 7; 22 °C

| IC50 | Structure (SMILES) |
| --- | --- |
| 16 µM | CC(=O)N[C@@H](Cc1ccccc1)C(=O)N[C@@H](Cc1ccc([C@H]2CC(=O)NS2(=O)=O)cc1)C(N)=O [(2S)-N-[(1S)-1-carbamoyl-2-{4-[(5R)-1,1,3-trioxo-1,2-thiazolidin-5-yl]phenyl}ethyl]-2-acetamido-3-phenylpropanamide] |
| 3 µM | CC(=O)N[C@@H](Cc1ccccc1)C(=O)N[C@@H](Cc1ccc(C2=CC(=O)NS2(=O)=O)cc1)C(N)=O [(2S)-N-[(1S)-1-carbamoyl-2-[4-(1,1,3-trioxo-2,3-dihydro-1,2-thiazol-5-yl)phenyl]ethyl]-2-acetamido-3-phenylpropanamide] |
